Data from patent US20150352116A1, “HDAC INHIBITOR AND BTK INHIBITOR COMBINATIONS” (Pharmacyclics LLC, priority 2014, published 2015).

Tests used:
Type in all cases: cell-based
CLL cells [1] = assay: annexin apoptosis assay on CLL cells
From the text: FIG. 5 illustrates an annexin apoptosis assay on CLL cells.
FIG. 9 illustrates an annexin apoptosis assay on CLL cells.
(§1) FIG. 1A illustrates a nanostring miRNA expression data table. […] FIG. 1B illustrates HDAC1 knockdown in CLL cells. FIG. 2A illustrates a human BTK mRNA map. […] FIG. 2C illustrates a miRNA map. HDAC inhibition is associated with the accumulation of activating chromatin modifications (H3K4me3) that promote gene re-expression. FIG. 3A illustrates a miRNA expression data table. FIG. 3B illustrates miRNA expression in the presence or absence of 0.4 μM Abexinostat in unmutated 17p CLL. […] FIG. 5 illustrates an annexin apoptosis assay on CLL cells. […] FIG. 6 illustrates survival after leukemia in a TCL-1 mouse model. […] FIG. 9 illustrates an annexin apoptosis assay on CLL cells. […] FIG. 10 illustrates the expression of phosphorylated BTK Y223 in the presence of Abexinostat in AML cells.

CLL cells [2] = assay: sensitivity of CLL cells from extended-lymphocytosis or ibrutinib-resistant samples (FIG. 7); conditions: samples with extended lymphocytosis or that develop resistance to Ibrutinib
Experimental: as §1

Btk-directed miRNA = assay: miRNA expression in unmutated 17p CLL; conditions: 0.4 μM Abexinostat, unmutated 17p (high risk) CLL, FIG. 3B
Experimental: FIG. 3A illustrates a miRNA expression data table. FIG. 3B illustrates miRNA expression in the presence or absence of 0.4 μM Abexinostat in unmutated 17p CLL.
as §1

CN(C)Cc1c(C(=O)NCCOc2ccc(C(=O)NO)cc2)oc2ccccc12 [Abexinostat, 3-[(Dimethylamino)methyl]-N-{2-[4-(hydroxycarbamoyl)phenoxy]ethyl}-1-benzofuran-2-carboxamide]
killing of CLL cells (annexin apoptosis), combination effect (CLL cells [1]; Abexinostat in combination with ibrutinib, FIG. 5): synergized with ibrutinib to kill CLL cells | sensitivity of CLL cells to Abexinostat (annexin apoptosis) (CLL cells [1]; samples with extended lymphocytosis or that develop resistance to Ibrutinib, FIG. 9): retain sensitivity | sensitivity of CLL cells to Abexinostat (CLL cells [2]): retaining sensitivity | effect on miRNA expression (Btk-directed miRNA): de-repression of Btk-directed miRNA
